# Measured values as given in the Kinase Knowledgebase extract (Sharma et al. 2016).
# Target: EGFR (UniProt P00533)
# Sequence (P00533 whole entry, looked up): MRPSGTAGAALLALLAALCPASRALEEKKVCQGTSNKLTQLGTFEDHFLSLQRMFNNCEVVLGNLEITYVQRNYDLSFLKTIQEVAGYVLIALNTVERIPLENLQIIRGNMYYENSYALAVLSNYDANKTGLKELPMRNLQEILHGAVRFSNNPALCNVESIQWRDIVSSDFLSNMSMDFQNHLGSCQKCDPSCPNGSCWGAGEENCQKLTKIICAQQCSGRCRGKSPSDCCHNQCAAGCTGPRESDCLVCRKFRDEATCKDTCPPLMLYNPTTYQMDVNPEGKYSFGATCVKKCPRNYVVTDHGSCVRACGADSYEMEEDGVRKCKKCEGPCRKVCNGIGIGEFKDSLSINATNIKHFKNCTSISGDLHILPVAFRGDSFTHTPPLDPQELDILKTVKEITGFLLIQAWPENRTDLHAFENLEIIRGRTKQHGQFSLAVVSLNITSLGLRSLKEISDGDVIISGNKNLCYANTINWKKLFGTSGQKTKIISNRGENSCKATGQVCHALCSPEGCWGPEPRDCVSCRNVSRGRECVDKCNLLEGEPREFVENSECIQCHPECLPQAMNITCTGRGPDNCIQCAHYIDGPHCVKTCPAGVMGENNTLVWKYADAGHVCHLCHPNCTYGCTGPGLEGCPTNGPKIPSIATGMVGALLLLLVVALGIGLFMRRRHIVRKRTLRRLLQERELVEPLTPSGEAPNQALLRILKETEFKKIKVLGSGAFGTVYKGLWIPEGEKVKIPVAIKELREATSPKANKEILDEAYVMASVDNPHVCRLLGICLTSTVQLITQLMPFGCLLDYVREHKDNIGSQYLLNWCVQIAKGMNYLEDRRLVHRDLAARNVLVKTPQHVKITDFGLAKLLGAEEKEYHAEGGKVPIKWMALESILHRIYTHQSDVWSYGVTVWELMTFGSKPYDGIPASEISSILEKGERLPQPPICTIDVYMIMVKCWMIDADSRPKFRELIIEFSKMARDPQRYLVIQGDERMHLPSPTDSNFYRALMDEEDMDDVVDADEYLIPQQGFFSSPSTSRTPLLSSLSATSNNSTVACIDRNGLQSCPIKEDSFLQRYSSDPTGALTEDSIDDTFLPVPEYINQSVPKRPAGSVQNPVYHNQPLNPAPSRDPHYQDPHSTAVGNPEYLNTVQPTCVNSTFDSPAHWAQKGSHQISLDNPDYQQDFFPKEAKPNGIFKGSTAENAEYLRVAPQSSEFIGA
row,Structure (SMILES),IC50
1,COc1cc2c(NS(=O)(=O)c3c(C)cc(C)cc3C)ncnc2cc1OCCN1CCOCC1,≤ 1000 nM
2,COc1cc2c(NS(=O)(=O)c3ccccc3)ncnc2cc1OCCN1CCN(C)CC1,≤ 1000 nM
3,COc1cc2c(NS(=O)(=O)c3cccc(Br)c3)ncnc2cc1OCCN1CCCCC1,≤ 1000 nM
4,CCN(CC)CCOc1cc2ncnc(NS(=O)(=O)c3cc(OC)ccc3OC)c2cc1OC,≤ 1000 nM
5,COc1cc2c(NS(=O)(=O)c3ccc(Cl)cc3)ncnc2cc1OCCCN1CCOCC1,≤ 1000 nM
6,COc1cc2c(NS(=O)(=O)c3ccc(Cl)cc3Cl)ncnc2cc1OCCCN1CCOCC1,≤ 1000 nM
7,COc1cc2c(NS(=O)(=O)c3ccc(Sc4cccs4)s3)ncnc2cc1OC1CCN(C)CC1,≤ 1000 nM
8,COc1cc2c(NS(=O)(=O)c3ccc(F)cc3)ncnc2cc1OCCN1CCN(C)CC1,≤ 1000 nM
9,COc1ccc(S(=O)(=O)Nc2ncnc3cc(OCCN4CCN(C)CC4)c(OC)cc23)cc1OC,≤ 1000 nM
10,COc1cc2c(NS(=O)(=O)c3ccccc3Br)ncnc2cc1OCCN1CCCCC1,≤ 1000 nM
11,COc1cc2c(NS(=O)(=O)c3cccc(Br)c3)ncnc2cc1OCCN1CCOCC1,≤ 1000 nM
12,COc1cc2c(NS(=O)(=O)c3ccc(F)cc3)ncnc2cc1OCCCN(C)C,≤ 1000 nM
13,COc1cc2c(NS(=O)(=O)c3ccc(C(F)(F)F)cc3)ncnc2cc1OCCN1CCOCC1,≤ 1000 nM
14,COc1cc2c(NS(C)(=O)=O)ncnc2cc1OC1CCN(C)CC1,≤ 1000 nM
15,CCN(CC)CCOc1cc2ncnc(NS(=O)(=O)c3ccc(Sc4cccs4)s3)c2cc1OC,≤ 1000 nM
16,COc1ccc(OC)c(S(=O)(=O)Nc2ncnc3cc(OC4CCN(C)CC4)c(OC)cc23)c1,≤ 1000 nM
17,COc1cc2c(NS(=O)(=O)c3cccc4cccnc34)ncnc2cc1OCCN1CCCCC1,≤ 1000 nM
18,CCN(CC)CCOc1cc2ncnc(NS(=O)(=O)c3c(C)noc3C)c2cc1OC,≤ 1000 nM
19,COc1cc2c(NS(=O)(=O)c3ccc(Br)cc3)ncnc2cc1OCCCN(C)C,≤ 1000 nM
20,COc1cc2c(NS(=O)(=O)c3sc(C)nc3C)ncnc2cc1OCCN1CCOCC1,≤ 1000 nM
21,COc1cc2c(NS(=O)(=O)c3ccc(Br)cc3)ncnc2cc1OC1CCN(C)CC1,≤ 1000 nM
22,COc1cc2c(NS(=O)(=O)c3cc(Cl)cc(Cl)c3)ncnc2cc1OCCN1CCOCC1,≤ 1000 nM
23,CCN(CC)CCOc1cc2ncnc(NS(=O)(=O)c3cn(C)cn3)c2cc1OC,≤ 1000 nM
24,COc1cc2c(NS(=O)(=O)c3cccc4cccnc34)ncnc2cc1OCCCN(C)C,≤ 1000 nM

row,Structure (SMILES),IC50
1,COc1cc2c(NS(=O)(=O)c3ccc(Cl)s3)ncnc2cc1OC1CCN(C)CC1,≤ 1000 nM
2,CCN(CC)CCOc1cc2ncnc(NS(=O)(=O)c3ccc(Sc4ccccc4)s3)c2cc1OC,≤ 1000 nM
3,COc1cc2c(NS(=O)(=O)Cc3ccccc3)ncnc2cc1OCCN1CCN(C)CC1,≤ 1000 nM
4,COc1cc2c(NS(=O)(=O)c3ccccc3)ncnc2cc1OCCN1CCOCC1,≤ 1000 nM
5,CCN(CC)CCOc1cc2ncnc(NS(=O)(=O)c3ccc(Cl)cc3)c2cc1OC,≤ 1000 nM
6,CCN(CC)CCOc1cc2ncnc(NS(=O)(=O)c3cccc(Br)c3)c2cc1OC,≤ 1000 nM
7,COc1cc2c(NS(=O)(=O)c3ccc(F)cc3)ncnc2cc1OCCCN1CCOCC1,≤ 1000 nM
8,CCN(CC)CCOc1cc2ncnc(NS(=O)(=O)c3cccc4cccnc34)c2cc1OC,≤ 1000 nM
9,COc1cc2c(NS(=O)(=O)c3ccc(Br)cc3)ncnc2cc1OCCN1CCN(C)CC1,≤ 1000 nM
10,COc1cc2c(NS(=O)(=O)Cc3ccccc3)ncnc2cc1OCCN1CCCCC1,≤ 1000 nM
11,CCN(CC)CCOc1cc2ncnc(NS(=O)(=O)c3ccccc3C)c2cc1OC,≤ 1000 nM
12,COc1cc2c(NS(=O)(=O)Cc3ccccc3)ncnc2cc1OCCCN(C)C,≤ 1000 nM
13,COc1ccc(S(=O)(=O)Nc2ncnc3cc(OCCN4CCOCC4)c(OC)cc23)cc1,≤ 1000 nM
14,COc1cc2c(NS(=O)(=O)c3ccc(F)cc3)ncnc2cc1OCCN1CCOCC1,≤ 1000 nM
15,COc1ccc(S(=O)(=O)Nc2ncnc3cc(OC4CCN(C)CC4)c(OC)cc23)cc1OC,≤ 1000 nM
16,COc1cc2c(NS(=O)(=O)c3ccc(Sc4cccs4)s3)ncnc2cc1OCCCN(C)C,≤ 1000 nM
17,COc1cc2c(NS(=O)(=O)c3ccc(C)cc3)ncnc2cc1OCCN1CCOCC1,≤ 1000 nM
18,CCN(CC)CCOc1cc2ncnc(NS(=O)(=O)c3ccc(OC)cc3)c2cc1OC,≤ 1000 nM
19,COc1cc2c(NS(=O)(=O)c3cccc(Cl)c3)ncnc2cc1OCCCN(C)C,≤ 1000 nM
20,COc1ccc(S(=O)(=O)Nc2ncnc3cc(OCCN4CCOCC4)c(OC)cc23)cc1OC,≤ 1000 nM
21,COc1cc2c(NS(=O)(=O)c3c(C)noc3C)ncnc2cc1OCCN1CCOCC1,≤ 1000 nM
22,COc1cc2c(NS(=O)(=O)c3cccc(Cl)c3)ncnc2cc1OCCN1CCOCC1,≤ 1000 nM
23,COc1ccc(OC)c(S(=O)(=O)Nc2ncnc3cc(OCCN4CCOCC4)c(OC)cc23)c1,≤ 1000 nM
24,COc1cc2c(NS(=O)(=O)c3cc(Cl)c(Cl)s3)ncnc2cc1OCCN1CCN(C)CC1,≤ 1000 nM

row,Structure (SMILES),IC50
1,COc1cc2c(NS(=O)(=O)c3ccc(Cl)s3)ncnc2cc1OCCN1CCCCC1,≤ 1000 nM
2,COc1cc2c(NS(=O)(=O)c3ccc4ccccc4c3)ncnc2cc1OCCN1CCCCC1,≤ 1000 nM
3,COc1cc2c(NS(=O)(=O)c3ccc(Cl)cc3)ncnc2cc1OCCCN(C)C,≤ 1000 nM
4,COc1cc2c(NS(=O)(=O)c3ccc(Cl)cc3)ncnc2cc1OCCN1CCN(C)CC1,≤ 1000 nM
5,COc1cc2c(NS(=O)(=O)c3cccc(Cl)c3)ncnc2cc1OCCN1CCCCC1,≤ 1000 nM
6,COc1cc2c(NS(=O)(=O)c3ccc(C(C)(C)C)cc3)ncnc2cc1OCCN1CCN(C)CC1,≤ 1000 nM
7,CCN(CC)CCOc1cc2ncnc(NS(=O)(=O)c3ccccc3Br)c2cc1OC,≤ 1000 nM
8,COc1cc2c(NS(=O)(=O)c3ccc(C)cc3)ncnc2cc1OCCCN1CCOCC1,≤ 1000 nM
9,COc1cc2c(NS(=O)(=O)c3ccc(C)cc3)ncnc2cc1OC1CCN(C)CC1,≤ 1000 nM
10,CCN(CC)CCOc1cc2ncnc(NS(=O)(=O)c3ccc(F)cc3)c2cc1OC,≤ 1000 nM
11,COc1cc2c(NS(=O)(=O)c3cc(Cl)cc(Cl)c3)ncnc2cc1OCCN1CCN(C)CC1,≤ 1000 nM
12,COc1cc2c(NS(=O)(=O)c3ccc(Sc4cccs4)s3)ncnc2cc1OCCN1CCCCC1,≤ 1000 nM
13,COc1cc2c(NS(=O)(=O)c3ccccc3Br)ncnc2cc1OCCN1CCOCC1,≤ 1000 nM
14,COc1cc2c(NS(=O)(=O)c3ccccc3C)ncnc2cc1OCCN1CCCCC1,≤ 1000 nM
15,COc1cc2c(NS(=O)(=O)c3ccc(Cl)s3)ncnc2cc1OCCN1CCN(C)CC1,≤ 1000 nM
16,COc1cc2c(NS(=O)(=O)c3ccccc3Cl)ncnc2cc1OCCN1CCCCC1,≤ 1000 nM
17,COc1cc2c(NS(=O)(=O)c3ccccc3)ncnc2cc1OCCCN1CCOCC1,≤ 1000 nM
18,COc1cc2c(NS(=O)(=O)c3cccc(Br)c3)ncnc2cc1OCCN1CCN(C)CC1,≤ 1000 nM
19,CCN(CC)CCOc1cc2ncnc(NS(=O)(=O)c3c(C)cc(C)cc3C)c2cc1OC,≤ 1000 nM
20,COc1cc2c(NS(=O)(=O)c3ccc(Cl)s3)ncnc2cc1OCCCN(C)C,≤ 1000 nM
21,COc1cc2c(NS(=O)(=O)c3ccccc3C#N)ncnc2cc1OCCCN1CCOCC1,≤ 1000 nM
22,COc1ccc(OC)c(S(=O)(=O)Nc2ncnc3cc(OCCN4CCN(C)CC4)c(OC)cc23)c1,≤ 1000 nM
23,COc1ccc(S(=O)(=O)Nc2ncnc3cc(OCCN4CCCCC4)c(OC)cc23)cc1OC,≤ 1000 nM
24,COc1cc2c(NS(=O)(=O)c3cccc(Cl)c3)ncnc2cc1OCCCN1CCOCC1,≤ 1000 nM
